Test results as given in ChEMBL document CHEMBL1201862, “PubChem BioAssay data set” (2004).
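In this assay, cells in 96-well plates receive the compound at five concentrations for 48 hours. Endpoints are linearly interpolated between the surrounding concentrations. Here, GI50 denotes the concentration required for 50% inhibition of growth.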 Active and inactive are the calls of the source. Cut-off read from the data, not from the text of the source: active = GI50 up to about 1.1 µM and inactive = higher.

Legend:
Test in all cases: NCI tumour cell line growth inhibition, 48 h
U-251 = test system: U-251
KM12 = test system: KM12
SF-268 = test system: SF-268
SNB-78 = test system: SNB-78
SF-295 = test system: SF-295
TK-10 = test system: TK-10
786-0 = test system: 786-0
HT-29 = test system: HT-29
NCI-H226 = test system: NCI-H226
OVCAR-5 = test system: OVCAR-5
A498 = test system: A498
SK-MEL-2 = test system: SK-MEL-2
SK-MEL-5 = test system: SK-MEL-5
HCC 2998 = test system: HCC 2998
LOX IMVI = test system: LOX IMVI
NCI-H522 = test system: NCI-H522
UACC-257 = test system: UACC-257
RXF 631 = test system: RXF 631
Malme-3M = test system: Malme-3M
DLD-1 = test system: DLD-1
OVCAR-3 = test system: OVCAR-3
CCRF-CEM = test system: CCRF-CEM
RPMI-8226 = test system: RPMI-8226
SF-539 = test system: SF-539
HCT-15 = test system: HCT-15
SN12C = test system: SN12C
SNB-19 = test system: SNB-19
SK-OV-3 = test system: SK-OV-3
HOP-62 = test system: HOP-62
KM-20L2 = test system: KM-20L2
OVCAR-8 = test system: OVCAR-8
A549 = test system: A549
DMS-114 = test system: DMS-114
CAKI-1 = test system: CAKI-1
RXF 393 = test system: RXF 393
DMS-273 = test system: DMS-273
SW-620 = test system: SW-620
M14 = test system: M14
UACC-62 = test system: UACC-62
K562 = test system: K562
EKVX = test system: EKVX
SNB-75 = test system: SNB-75
NCI-H460 = test system: NCI-H460
IGROV-1 = test system: IGROV-1
HCT-116 = test system: HCT-116
M19-MEL = test system: M19-MEL
ACHN = test system: ACHN
UO-31 = test system: UO-31
MOLT-4 = test system: MOLT-4
COLO 205 = test system: COLO 205

## C[n+]1cc(C(O)c2ccc3c(c2)OCO3)c2ccccc2c1 (stereo not given)
U-251
  GI50: 27 µM (inactive)
KM12
  GI50: 38.3 µM (inactive)
SF-268
  GI50: 28.6 µM (inactive)
SNB-78
  GI50: 28.6 µM (inactive)
SF-295
  GI50: 28.6 µM (inactive)
TK-10
  GI50: 36.8 µM (inactive)
786-0
  GI50: 36.5 µM (inactive)
HT-29
  GI50: 51.2 µM (inactive)
NCI-H226
  GI50: 20.6 µM (inactive)
OVCAR-5
  GI50: > 100 µM (inactive)
A498
  GI50: 29.9 µM (inactive)
SK-MEL-2
  GI50: 26.2 µM (inactive)
SK-MEL-5
  GI50: 17.9 µM (inactive)
HCC 2998
  GI50: 37.8 µM (inactive)
LOX IMVI
  GI50: 46 µM (inactive)
NCI-H522
  GI50: 16 µM (inactive)
UACC-257
  GI50: 18.6 µM (inactive)
RXF 631
  GI50: 40.8 µM (inactive)
Malme-3M
  GI50: 25.4 µM (inactive)
DLD-1
  GI50: 31.8 µM (inactive)
OVCAR-3
  GI50: 28.8 µM (inactive)
CCRF-CEM
  GI50: 29.9 µM (inactive)
RPMI-8226
  GI50: 13.9 µM (inactive)
SF-539
  GI50: 30.2 µM (inactive)
HCT-15
  GI50: 33.5 µM
SN12C
  GI50: 40.6 µM (inactive)
SNB-19
  GI50: 44.3 µM (inactive)
SK-OV-3
  GI50: 45.5 µM (inactive)
HOP-62
  GI50: 37.7 µM (inactive)
KM-20L2
  GI50: 45.5 µM (inactive)
OVCAR-8
  GI50: 33.3 µM (inactive)
A549
  GI50: 33.3 µM (inactive)
DMS-114
  GI50: 21.9 µM (inactive)
CAKI-1
  GI50: 13.9 µM (inactive)
RXF 393
  GI50: 14.1 µM (inactive)
DMS-273
  GI50: 31.2 µM (inactive)
SW-620
  GI50: 44.2 µM (inactive)
M14
  GI50: 25.4 µM (inactive)
UACC-62
  GI50: 22.9 µM (inactive)
K562
  GI50: 25.1 µM (inactive)
EKVX
  GI50: 27 µM (inactive)
SNB-75
  GI50: 41.1 µM (inactive)
NCI-H460
  GI50: 40.3 µM (inactive)
IGROV-1
  GI50: 47.4 µM (inactive)
HCT-116
  GI50: 28.4 µM (inactive)
M19-MEL
  GI50: 40.6 µM (inactive)
ACHN
  GI50: 29.1 µM (inactive)
UO-31
  GI50: 16.6 µM (inactive)
MOLT-4
  GI50: 17.9 µM (inactive)
COLO 205
  GI50: 33.2 µM (inactive)
